Data: patent publication US12077503B2, “Substituted cyclic amides and their use as herbicides” (FMC CORPORATION, priority 2015, dated 2024)

Legend:
Format in all cases: in vivo
[1] = system: barnyardgrass (Echinochloa crus-galli); test: Test G Pre-Emergence Protocol; settings: Echinochloa crus-galli, pre-emergence, 312 h, evaluated after 13 days
Method in brief: (§1)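 Seeds were sown in standard soil and kept one day in a glasshouse (24/16° C day/night, 14 h light, 65% humidity), then sprayed with compound in acetone/water (50:50) containing 0.5% Tween 20 at 15.625, 62.5 or 250 g/ha. Damage was scored after 13 days (0 = none, 100 = total).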

corn (Zea mays) [2] = test: Test G Pre-Emergence Protocol; settings: Zea mays, pre-emergence, 312 h, evaluated after 13 days
Method in brief: as §1

[3] = system: giant foxtail (Setaria faberi); test: Test G Pre-Emergence Protocol; settings: Setaria faberi, pre-emergence, 312 h, evaluated after 13 days
Method in brief: as §1

[4] = system: ivy-leaved morning glory (Ipomoea hederacea); test: Test G Pre-Emergence Protocol; settings: Ipomoea, pre-emergence, 312 h, evaluated after 13 days
Method in brief: as §1

[5] = system: redroot pigweed (Amaranthus retroflexus); test: Test G Pre-Emergence Protocol; settings: Amaranthus retroflexus, pre-emergence, 312 h, evaluated after 13 days
Method in brief: as §1

[6] = system: velvetleaf (Abutilon theophrasti); test: Test G Pre-Emergence Protocol; settings: Abutilon theophrasti, pre-emergence, 312 h, evaluated after 13 days
Method in brief: as §1

[7] = system: barnyardgrass (Echinochloa crus-galli); test: Test G Post-Emergence Protocol; settings: Echinochloa crus-galli, post-emergence, 312 h, read-out: Barnyardgrass damage rating
Method in brief: (§2)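 Damage was rated 13 days after treatment from 0 (none) to 100 (plant killed). Compound was applied as a spray at 15.625, 62.5 or 250 g/ha in 50:50 acetone/water containing 0.5% Tween 20, onto 8-day-old potted plants kept in a glasshouse (24/16 °C, 14 h light, 65% humidity).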

corn (Zea mays) [8] = test: Test G Post-Emergence Protocol; settings: Zea mays, post-emergence, 312 h, read-out: Corn damage rating
Method in brief: as §2

[9] = system: giant foxtail (Setaria faberi); test: Test G Post-Emergence Protocol; settings: Setaria faberi, post-emergence, 312 h, read-out: Foxtail, Giant damage rating
Method in brief: as §2

[10] = system: ivy-leaved morning glory (Ipomoea hederacea); test: Test G Post-Emergence Protocol; settings: Ipomoea, post-emergence, 312 h, read-out: Morningglory, Ivy-leaved damage rating
Method in brief: as §2

[11] = system: redroot pigweed (Amaranthus retroflexus); test: Test G Post-Emergence Protocol; settings: Amaranthus retroflexus, post-emergence, 312 h, read-out: Pigweed, Redroot damage rating
Method in brief: as §2

[12] = system: velvetleaf (Abutilon theophrasti); test: Test G Post-Emergence Protocol; settings: Abutilon theophrasti, post-emergence, 312 h, read-out: Velvetleaf damage rating
Method in brief: as §2

[13] = 15.625 g ai/ha, evaluated after 13 days (100=total damage to plant; 0=no damage to plant)
[14] = 62.5 g ai/ha, evaluated after 13 days, 100=total damage to plant, 0=no damage to plant
[15] = 250 g ai/ha, evaluated after 13 days, 100=total damage to plant, 0=no damage to plant

CN1CC(c2ccc(Cl)c([N+](=O)[O-])c2)C(C(=O)Nc2cccc(F)c2F)C1=O (stereo not drawn) [Compound 1685]
pest or weed control at 15.625 g/ha ([1]; 15.625 g ai/ha, read-out: Barnyardgrass damage rating (100=total damage to plant; 0=no damage to plant)): 30%
pest or weed control at 62.5 g/ha ([1]; 62.5 g ai/ha, 100=total damage to plant, 0=no damage to plant, read-out: Barnyardgrass damage rating): 70%
pest or weed control at 250 g/ha ([1]; 250 g ai/ha, read-out: Barnyardgrass damage rating (100=total damage to plant; 0=no damage to plant)): 80%
plant injury at 15.625 g/ha (corn (Zea mays) [2]; 15.625 g ai/ha, read-out: Corn damage rating (100=total damage to plant; 0=no damage to plant)): 0%
plant injury at 62.5 g/ha (corn (Zea mays) [2]; 62.5 g ai/ha, 100=total damage to plant, 0=no damage to plant, read-out: Corn damage rating): 0%
plant injury at 250 g/ha (corn (Zea mays) [2]; 250 g ai/ha, read-out: Corn damage rating (100=total damage to plant; 0=no damage to plant)): 60%
pest or weed control at 15.625 g/ha ([3]; 15.625 g ai/ha, read-out: Foxtail, Giant damage rating (100=total damage to plant; 0=no damage to plant)): 40%
pest or weed control at 62.5 g/ha ([3]; 62.5 g ai/ha, 100=total damage to plant, 0=no damage to plant, read-out: Foxtail, Giant damage rating): 70%
pest or weed control at 250 g/ha ([3]; 250 g ai/ha, read-out: Foxtail, Giant damage rating (100=total damage to plant; 0=no damage to plant)): 90%
pest or weed control at 15.625 g/ha ([4]; 15.625 g ai/ha, read-out: Morningglory, Ivy-leaved damage rating (100=total damage to plant; 0=no damage to plant)): 10%
pest or weed control at 62.5 g/ha ([4]; 62.5 g ai/ha, 100=total damage to plant, 0=no damage to plant, read-out: Morningglory, Ivy-leaved damage rating): 20%
pest or weed control at 250 g/ha ([4]; 250 g ai/ha, read-out: Morningglory, Ivy-leaved damage rating (100=total damage to plant; 0=no damage to plant)): 30%
pest or weed control at 15.625 g/ha ([5]; 15.625 g ai/ha, read-out: Pigweed, Redroot damage rating (100=total damage to plant; 0=no damage to plant)): 0%
pest or weed control at 62.5 g/ha ([5]; 62.5 g ai/ha, 100=total damage to plant, 0=no damage to plant, read-out: Pigweed, Redroot damage rating): 10%
pest or weed control at 250 g/ha ([5]; 250 g ai/ha, read-out: Pigweed, Redroot damage rating (100=total damage to plant; 0=no damage to plant)): 60%
pest or weed control at 15.625 g/ha ([6]; 15.625 g ai/ha, read-out: Velvetleaf damage rating (100=total damage to plant; 0=no damage to plant)): 10%
pest or weed control at 62.5 g/ha ([6]; 62.5 g ai/ha, 100=total damage to plant, 0=no damage to plant, read-out: Velvetleaf damage rating): 10%
pest or weed control at 250 g/ha ([6]; 250 g ai/ha, read-out: Velvetleaf damage rating (100=total damage to plant; 0=no damage to plant)): 30%
pest or weed control at 15.625 g/ha [7, 13]: 30%
pest or weed control at 62.5 g/ha [7, 14]: 60%
pest or weed control at 250 g/ha [7, 15]: 80%
plant injury at 15.625 g/ha (corn (Zea mays) [8]; [13]): 10%
plant injury at 62.5 g/ha (corn (Zea mays) [8]; [14]): 40%
plant injury at 250 g/ha (corn (Zea mays) [8]; [15]): 70%
pest or weed control at 15.625 g/ha [9, 13]: 70%
pest or weed control at 62.5 g/ha [9, 14]: 70%
pest or weed control at 250 g/ha [9, 15]: 80%
pest or weed control at 15.625 g/ha [10, 13]: 40%
pest or weed control at 62.5 g/ha [10, 14]: 30%
pest or weed control at 250 g/ha [10, 15]: 70%
pest or weed control at 15.625 g/ha [11, 13]: 40%
pest or weed control at 62.5 g/ha [11, 14]: 50%
pest or weed control at 250 g/ha [11, 15]: 70%
pest or weed control at 15.625 g/ha [12, 13]: 10%
pest or weed control at 62.5 g/ha [12, 14]: 30%
pest or weed control at 250 g/ha [12, 15]: 60%
